Reference: paper PMC11325505, “Nitrogen-Containing Flavonoids—Preparation and Biological Activity” (ACS Omega, 2024)
Converted amounts (≈) assume the structure as drawn. “And” between values parts separate entries of the source, which are not always exact repeats. Equal entries are not always repeated. Where two headings read alike, the source gives them in different places.

Assays:
[1] = tested on: S. aureus CCM 4223; test: Antibacterial activity, antibiotic-sensitive strain; assay type: cell-based; conditions: Staphylococcus aureus, CCM4223, three repetitions ± SEM
[2] = tested on: interleukin 6 (IL-6) production by RAW 264.7 stimulated by LPS; test: Anti-inflammatory activity: IL-6 production by LPS-stimulated macrophages; assay type: cell-based, Murine; conditions: for IC50: Mus musculus, RAW264.7, LPS-stimulated RAW 264.7, average of four repetitions ± SEM; for ability to inhibit IL-6 production compared to luteolin, in words: LPS-stimulated macrophages
Method: (§1) The anti-inflammatory activity of flavonoids was evaluated as their ability to decrease the production of signaling molecules that mediate inflammation, such as nitric oxide (NO), tumor necrosis factor (TNF-α), and interleukin 6 (IL-6), in LPS-stimulated macrophages.
(§2) The anti-inflammatory activity of the tested flavonoids was determined as the ability to reduce the production of nitric oxide (NO), tumor necrosis factor (TNF-α), and interleukin 6 (IL-6) by RAW 264.7 stimulated by LPS, as previously described.[39],[40] Briefly, 1 × 10^6 cells/mL was seeded into the 96-well plate (100 μL/well). After 48 h, LPS (100 ng/mL) and the samples (3–100 μM) were added to the MEM medium. After 24 h, the medium was mixed with Griess reagent (0.04 g/mL) at a 1:1 ratio. The absorbance was measured after 15 min at 540 nm. Cell viability was determined using the resazurin assay.
To determine TNF-α levels, cells were precultivated with the tested compounds for 24 h. After 2 h of incubation with LPS, the medium was diluted 1:10 with ELISA diluent. To determine the level of IL-6, cells were cultivated for 6 h with LPS and the tested compounds. Cytokine production was determined using an uncoated ELISA performed according to the manufacturer’s instructions.

[3] = tested on: Staphylococcus aureus MRSA 9; test: Modulation of antibiotic-resistant phenotype (flavonoid plus breakpoint concentration of antibiotic); assay type: cell-based; conditions: for minimum inhibitory concentration (MIC) in the presence of erythromycin: erythromycin at breakpoint concentration 1 mg/L; for minimum inhibitory concentration (MIC) in the presence of erythromycin / minimum inhibitory concentration (MIC) in the presence of gentamicin: MIC determined as IC70, three repetitions ± SEM; for minimum inhibitory concentration (MIC) in the presence of gentamicin: gentamicin at breakpoint concentration 1 mg/L
Method: (§3) To evaluate the ability to modulate bacterial resistance, the tested flavonoids themselves cannot exert antimicrobial activity; therefore, the nontoxic concentration was used, as indicated in Table S5. Clinically relevant antibiotics were selected at breakpoint concentrations for susceptibility testing according to the European Committee on Antimicrobial Susceptibility Testing (EUCAST, version 11.0). […] Flavonoids and their derivatives (from 1 μM to the highest nontoxic concentration) were used in combination with the breakpoint concentration of the antibiotics. After coincubation, the minimum inhibitory concentration (MIC) of flavonoids inhibiting the visible growth of bacteria was determined (Table 2).
(§4) Sensitization of multidrug-resistant clinical bacterial strains was performed according to ref[15]. Antibiotic cutoff concentration was chosen according to the European Committee on Antimicrobial Susceptibility Testing (EUCAST, Clinical breakpoints–bacteria, ver. 11.0). The 200 μM concentration of the derivatives was chosen as the highest test concentration. The absorbance detected at 600 nm was then used to estimate the number of viable cells after 24 h of incubation at 37 °C and 120 rpm.
(§5) Experiments were performed with the respective number of replicates indicated in each figure/table. MIC was determined as IC70. Both IC70 and IC50 values were calculated using the following nonlinear regression in the software GraphPad Prism: […]

[4] = tested on: S. aureus MRSA 9; test: Antibacterial activity, multidrug-resistant strain; assay type: cell-based; conditions: Staphylococcus aureus, MRSA; multidrug-resistant strain; three repetitions ± SEM
Method: as §3, §4, §5

[5] = tested on: RAW 264.7 cells; test: Cellular antioxidant activity (CAA); assay type: cell-based, Murine; conditions: for IC50: average of four repetitions ± standard error of the mean
Method: To evaluate the antioxidant activity of the prepared derivatives and the respective parent compounds, cellular antioxidant activity (CAA) was measured in macrophages. Compared to other in vitro antioxidant assays, this method provides partial information about the uptake and metabolism of the compounds, because, in this assay, they must first enter the cell to exert antioxidant activity.[31] […] Derivatization of quercetin at C-8 with 4-fluoroaniline (5) increased the antioxidant activity of quercetin by 1.7-fold. […] The concentration of these derivatives required to halve the cellular radicals decreased 1.5-fold compared to luteolin.
Cellular antioxidant capacity was evaluated as previously described.[31],[39] Briefly, 100 μL of RAW 264.7 cells with a density corresponding to 1 × 10^6 cells/mL were split into 96-well plates. After 24 h, cells were washed with PBS, and DMEM supplemented with DCFH-DA (0.0125 mg/mL) was added to each well together with the tested samples in the concentration range of 1.5–200 μM. After 1 h incubation in a CO2 incubator, the medium was replaced with AAPH solution (0.16 mg/mL in PBS), and fluorescence was immediately recorded (ex./em. 485/540 nm) for 2 h in 5 min intervals.

[6] = tested on: MRSA 1584; test: Mode of antimicrobial action with gentamicin, aac(6')/aph(2')-positive strain; assay type: cell-based, Staphylococcus aureus; conditions: for effect (mode of action with gentamicin) / FIC (Fractional Inhibitory Concentration Index) / MIC: MRSA 1584; for MIC, Gentamicin [1 mg/L] yes: MRSA 1584 (aac(6')/aph(2')), with gentamicin 1 mg/L; for FIC (Fractional Inhibitory Concentration Index): with gentamicin; for MIC: Staphylococcus aureus, 24 h, read-out: MIC, Gentamicin [1 mg/L] no, without gentamicin
Text: Among the mechanisms of resistance to gentamicin previously described in S. aureus, the presence of enzymes that alter the structure of aminoglycosides is crucial. These enzymes can transfer nucleotides, phosphates, or acetyls to various −OH or −NH2 groups of gentamicin, preventing its subsequent interaction with the cellular target, i.e., the 30S ribosomal subunit. The bifunctional aminoglycoside-modifying enzyme with acetylation and phosphotransferase activities encoded by the gene aac(6’)/aph(2’), 4′,4″ adenyltransferase encoded by the aadD gene, and aminoglycoside O-phosphotransferase encoded by the gene aph(3′) are the most important.[37] […] For this reason, further testing continued using strains MRSA 3596 and MRSA 1584, which inactivate gentamicin only by a single mechanism (aadD and aac(6’)-aph(2’’), respectively).
as §4, §5

[7] = tested on: nitric oxide (NO) production by RAW 264.7 stimulated by LPS; test: Anti-inflammatory activity: NO production by LPS-stimulated macrophages; assay type: cell-based, Murine; conditions: Mus musculus, RAW264.7; LPS-stimulated RAW 264.7; average of four repetitions ± SEM
Method: as §1, §2

[8] = tested on: immortalized human keratinocytes (HaCaT); test: Cytotoxicity (resazurin assay), keratinocytes; assay type: cell-based; conditions: Homo sapiens, HaCaT, 72 h, read-out: HaCaT IC50 (concentration that halved the viability)
Method: The cytotoxicity of the prepared derivatives was evaluated by their ability to decrease the viability of immortalized human keratinocytes (HaCaT) and human dermal fibroblasts (HDF).
100 μL of cell suspension containing 10^5 cells/mL was pipetted into a 96-well plate. After 24 h incubation, the tested compounds were added in the concentration range 12.5–200 μM. After 72 h incubation, the cell viability was tested by standard resazurin assay.[41] Briefly, the cells were washed with PBS and incubated with 100 μL of resazurin solution (0.025 mg/mL) for 2 h. The fluorescence was measured at a wavelength of 560 nm excitation/590 nm emission.

[9] = Mus musculus, RAW264.7, macrophages RAW 264.7
[10] = 72 h incubation, resazurin, average of three repetitions ± SEM

| SMILES | IC50 [1] | IC50 [2] | inhibition at 200 µM ([3]; Staphylococcus aureus, MRSA, with gentamicin 1 mg/L, maximum concentration used (200 μM), read-out: maximum concentration used inhibited bacterial growth to) | minimum inhibitory concentration (MIC) in the presence of erythromycin [3] | minimum inhibitory concentration (MIC) in the presence of gentamicin [3] | IC50 [4] | IC50 [5, 9] | IC50 ([5]; macrophages RAW 264.7) | effect (mode of action with gentamicin) [6] | MIC, Gentamicin [1 mg/L] yes [6] | FIC (Fractional Inhibitory Concentration Index) [6] | MIC [6] | IC50 [7] | IC50 [8] | IC50 [8, 10] | change of antioxidant activity compared to the parent compound, in words ([5]; CAA in macrophages) | ability to inhibit IL-6 production compared to luteolin, in words [2] |
| --- | --- | --- | --- | --- | --- | --- | --- | --- | --- | --- | --- | --- | --- | --- | --- | --- | --- |
| O=c1c(O)c(-c2ccc(O)c(O)c2)oc2cc(O)cc(O)c12 [compound 4, quercetin, reference compound] | > 200 µM | 4.7 ± 0.2 µM | 57% | 117.3 ± 4.7 µM | >200 ^note 1 μM | > 200 µM | 5.9 ± 0.4 µM | 5.85 µM | additive (> 0.5-1 indicates additive effects) | 55.6 ± 1.1 µM (≈ 16.8 µg/mL) | 0.63 ± 0.01 | 88.6 ± 0.3 µM (≈ 26.8 µg/mL) | 9.3 ± 0.6 µM | 127 ± 3.4 µM |  |  |  |
| O=c1c(O)c(-c2ccc(O)c(O)c2)oc2c(Nc3ccc(F)cc3)c(O)cc(O)c12 [compound 5, 2-(3,4-Dihydroxyphenyl)-8-(4-fluoroanilino)-3,5,7-trihydroxy-4H–1-benzopyran-4-one] | 28 ± 0.1 µM | 14.6 ± 0.8 µM |  | >200 µM | 45.2 ± 0.6 µM | 60.7 ± 2.4 µM | 3.4 ± 0.2 µM |  | additive (> 0.5-1 indicates additive effects) | 28.2 ± 0.5 µM (≈ 11.6 µg/mL) | 0.97 ± 0.02 | 29.2 ± 0.1 µM (≈ 12 µg/mL) | 37.4 ± 1.6 µM |  | 37.6 ± 3.4 µM |  |  |
| O=c1c(O)c(-c2ccc(O)c(O)c2)oc2c(Nc3ccc(C(F)(F)F)cc3)c(O)cc(O)c12 [compound 8, 2-(3,4-Dihydroxyphenyl)-8-(4-(trifluoromethyl)anilino)-3,5,7-trihydroxy-4H–1-benzopyran-4-one] | 39.3 ± 1.8 µM | 35.1 ± 1.6 µM |  | >25 ^note 3 μM | 8.1 µM and 8.1 ± 0.6 µM | 35.3 ± 0.7 µM | 11.5 ± 0.3 µM |  | additive (> 0.5-1 indicates additive effects) | 23.9 ± 0.1 µM (≈ 11 µg/mL) |  | 24.5 ± 0.4 µM (≈ 11.3 µg/mL) | 53.3 ± 0.8 µM | 117.1 ± 0.1 µM |  | significantly decreased the antioxidant activity |  |
| O=c1cc(-c2ccc(O)c(O)c2)oc2cc(O)cc(O)c12 [compound 10, luteolin, reference compound] | > 200 µM | 7.3 ± 0.2 µM |  | 147.3 ± 7.7 µM | 84.7 ± 1.8 µM | > 200 µM | 4.5 ± 0.5 µM | 4.48 µM | additive (> 0.5-1 indicates additive effects) | 7.6 ± 1.0 µM (≈ 2.18 µg/mL) | 0.50 ± 0.11 | 15.2 ± 1.4 µM (≈ 4.35 µg/mL) | 13.3 ± 0.2 µM | 34.7 ± 1 µM |  |  |  |
| O=c1cc(-c2ccc(O)c(O)c2)oc2c(Nc3ccc(F)cc3)c(O)cc(O)c12 [compound 11, 2-(3,4-Dihydroxyphenyl)-8-(4-fluoroanilino)-5,7-dihydroxy-4H–1-benzopyran-4-one] | 42 ± 1.2 µM | 7.2 ± 0.3 µM |  | >25 ^note 4 μM | 7.9 µM and 7.9 ± 0.5 µM | 38 ± 1.2 µM | 2.9 ± 0.2 µM |  | additive (> 0.5-1 indicates additive effects) | 15.7 ± 0.9 µM (≈ 6.21 µg/mL) | 0.65 ± 0.06 | 24.1 ± 0.7 µM (≈ 9.53 µg/mL) | > 25 µM | 76.9 ± 7.7 µM |  |  | same ability to inhibit IL-6 production as luteolin |
| COc1ccc(Nc2c(O)cc(O)c3c(=O)cc(-c4ccc(O)c(O)c4)oc23)cc1 [compound 12, 2-(3,4-Dihydroxyphenyl)-8-(4-methoxyanilino)-5,7-dihydroxy-4H–1-benzopyran-4-one] | 54 ± 0.1 µM | 15.3 ± 0.5 µM |  | 76.3 µM and 76.3 ± 1.9 µM | 44.0 ± 1.6 µM | 112 ± 1.2 µM | 3.4 ± 0.1 µM |  | additive (> 0.5-1 indicates additive effects) | 47.1 ± 0.8 µM (≈ 19.2 µg/mL) | 0.65 ± 0.03 | 72.9 ± 2.4 µM (≈ 29.7 µg/mL) | 48.3 ± 1.3 µM |  | 59.3 ± 6.3 µM |  |  |
| O=c1cc(-c2ccc(O)c(O)c2)oc2c(Nc3ccccc3)c(O)cc(O)c12 [compound 13, 2-(3,4-Dihydroxyphenyl)-8-(anilino)-5,7-dihydroxy-4H–1-benzopyran-4-one] | 50 ± 1.2 µM | 7.3 ± 0.6 µM |  | >200 µM | 24.7 ± 0.8 µM | 51.3 ± 1.3 µM | 3.1 ± 0.1 µM |  | additive (> 0.5-1 indicates additive effects) | 49.9 ± 8.1 µM (≈ 18.8 µg/mL) | 0.70 ± 0.12 | 70.9 ± 0.3 µM (≈ 26.8 µg/mL) | 29.3 ± 0.1 µM |  | 41.4 ± 3.7 µM |  | same ability to inhibit IL-6 production as luteolin |
